Measurements taken from ChEMBL document CHEMBL3399952, “Design and synthesis of novel anti-tuberculosis agents from the celecoxib pharmacophore” (Bioorg Med Chem, 2015).
Active and inactive are the calls of the source.

Assays:
Type in all cases: functional, organism-based
[1] = tested on: Mycobacterium tuberculosis; assay: Antimycobacterial activity against isoniazid, ethambutol-resistant Mycobacterium tuberculosis Strain 11J assessed as reduction in growth measured at 2.5 uM after 90 hrs by optical density-based broth culture growth assay
[2] = tested on: Mycobacterium tuberculosis; assay: Antimycobacterial activity against isoniazid, streptomycin-resistant Mycobacterium tuberculosis Strain 13E assessed as reduction in growth measured at 2.5 uM after 90 hrs by optical density-based broth culture growth assay
[3] = tested on: Mycobacterium tuberculosis; assay: Antimycobacterial activity against rifampicin, streptomycin-resistant Mycobacterium tuberculosis Strain 13B assessed as reduction in growth measured at 2.5 uM after 90 hrs by optical density-based broth culture growth assay

Measured: inhibition

CNC(=O)CCc1cc(-c2ccc(-c3ccc(C(F)(F)F)cc3)cc2)n(-c2ccc(NC(=O)c3ccc(N)cc3)cc2)n1
active: [1] | [2] | [3]

CNC(=O)CCc1cc(-c2ccc(-c3ccc(C(F)(F)F)cc3)cc2)n(-c2ccc(NC(=O)c3ccnc(C)c3)cc2)n1
active: [1] | [2] | [3]

CNC(=O)CCc1cc(-c2ccc(-c3ccc(C(F)(F)F)cc3)cc2)nn1-c1ccc(NC(=O)c2ccncc2)cc1
active: [1] | [2] | [3]

CNC(=O)CCc1cc(-c2ccc(-c3ccc(C(F)(F)F)cc3)cc2)n(-c2ccc(NC(=O)c3cn(C)cn3)cc2)n1
active: [1] | [2] | [3]

CNC(=O)CCc1cc(-c2ccc(-c3ccc(C(F)(F)F)cc3)cc2)n(-c2ccc(NC(=O)c3ccncc3Cl)cc2)n1
active: [1] | [2] | [3]

CNC(=O)CCc1cc(-c2ccc(-c3ccc(C(F)(F)F)cc3)cc2)n(-c2ccc(NC(=O)c3ccncc3)cc2)n1
active: [1] | [2] | [3]
